Data reported in the supplement of paper PMC10627819.

Legend:
[1] = system: B. subtilis 168; experiment: fitness (endpoint OD595 vs no drug) (fraction); higher = more growth
In short: (§1)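 Bacterial growth was followed in 384-well plates seeded at OD595 0.01, with 30 µl per well, or 55 µl for S. pneumoniae, in TSB, LB Lennox or CY at 37 °C. OD595 was read every 30 min for 14 h, and each reading had the first reading subtracted as background. Fitness is the background-corrected optical density at entry into stationary phase divided by the robust mean of the no-drug control wells. This ratio is capped at 1.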

[2] = system: S. pneumoniae D39V; experiment: as above
In short: as §1

[3] = system: S. aureus DSM 20231; experiment: as above
In short: as §1

[4] = system: B. subtilis 168; experiment: Bliss interaction score (quartile over a dose matrix) (fitness difference); higher = more antagonism (negative = synergy)
In short: (§2)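 Each plate was normalised to the robust mean of its own no-drug wells, using OD595 at entry into stationary phase, with values capped at 1. This normalised growth is the fitness value. The Bliss score is the difference between observed and product-expected fitness, with single-drug fitness inferred from the combination data and quartiles taken over technical, biological and donor/recipient replicates.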

[5] = system: S. pneumoniae D39V; experiment: as above
In short: as §2

[6] = system: S. aureus DSM 20231; experiment: as above
In short: as §2

[7] = system: S. aureus Newman; experiment: as above
In short: as §2

[8] = first compound 0.1 µg/mL, partner 85.5 µg/mL
[9] = first compound 0.1 µg/mL, partner 171 µg/mL
[10] = first compound 0.1 µg/mL, partner 342 µg/mL
[11] = first compound 0.2 µg/mL, partner 85.5 µg/mL
[12] = first compound 0.2 µg/mL, partner 171 µg/mL
[13] = first compound 0.2 µg/mL, partner 342 µg/mL
[14] = first compound 0.4 µg/mL, partner 85.5 µg/mL
[15] = first compound 0.4 µg/mL, partner 171 µg/mL
[16] = first compound 0.4 µg/mL, partner 342 µg/mL
[17] = first compound 0.1 µg/mL, partner 1.25 µg/mL
[18] = first compound 0.1 µg/mL, partner 2.5 µg/mL
[19] = first compound 0.1 µg/mL, partner 5 µg/mL
[20] = first compound 0.2 µg/mL, partner 1.25 µg/mL
[21] = first compound 0.2 µg/mL, partner 2.5 µg/mL
[22] = first compound 0.2 µg/mL, partner 5 µg/mL
[23] = first compound 0.4 µg/mL, partner 2.5 µg/mL
[24] = first compound 0.4 µg/mL, partner 5 µg/mL
[25] = first compound 0.1 µg/mL, partner 0.15 µg/mL
[26] = first compound 0.1 µg/mL, partner 0.3 µg/mL
[27] = first compound 0.1 µg/mL, partner 0.6 µg/mL
[28] = first compound 0.2 µg/mL, partner 0.15 µg/mL
[29] = first compound 0.2 µg/mL, partner 0.3 µg/mL
[30] = first compound 0.2 µg/mL, partner 0.6 µg/mL
[31] = first compound 0.4 µg/mL, partner 0.15 µg/mL
[32] = first compound 0.4 µg/mL, partner 0.3 µg/mL
[33] = first compound 0.4 µg/mL, partner 0.6 µg/mL
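Throughout, for Bliss interaction score (quartile over a dose matrix): first quartile when negative (synergy) and third quartile when positive (antagonism).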

`CCC[C@@H]1C[C@@H](C(=O)N[C@@H]([C@H]2O[C@H](SC)[C@H](O)[C@@H](O)[C@H]2O)[C@@H](C)O)N(C)C1` [Lincomycin] + CCN(CC)CCOC(=O)c1ccc(N)cc1 [Procaine] was tested, and the fitness [1, 8] was 0.917, the fitness [1, 9] was 0.932 and the fitness [1, 10] was 0.891. The fitness [1, 11] was 0.899, the fitness [1, 12] was 0.922 and the fitness [1, 13] was 0.862. For the same compound, the fitness [1, 14] was 0.875, the fitness [1, 15] was 0.875 and the fitness [1, 16] was 0.853. The fitness ([2]; first compound 0.2 µg/mL, partner 85.5 µg/mL, one replicate) was 0.748, the fitness ([2]; first compound 0.2 µg/mL, partner 171 µg/mL, one replicate) was 0.809 and the fitness ([2]; first compound 0.2 µg/mL, partner 342 µg/mL, one replicate) was 0.746. The fitness ([2]; first compound 0.215 µg/mL, partner 85.5 µg/mL) was 0.812, the fitness ([2]; first compound 0.215 µg/mL, partner 171 µg/mL) was 0.783 and the fitness ([2]; first compound 0.215 µg/mL, partner 342 µg/mL) was 0.784. For the same compound, the fitness ([2]; first compound 0.4 µg/mL, partner 85.5 µg/mL, one replicate) was 0.673, the fitness ([2]; first compound 0.4 µg/mL, partner 171 µg/mL, one replicate) was 0.693 and the fitness ([2]; first compound 0.4 µg/mL, partner 342 µg/mL, one replicate) was 0.665. The fitness ([2]; first compound 0.43 µg/mL, partner 85.5 µg/mL) was 0.717, the fitness ([2]; first compound 0.43 µg/mL, partner 171 µg/mL) was 0.695 and the fitness ([2]; first compound 0.43 µg/mL, partner 342 µg/mL) was 0.697. For the same compound, the fitness ([2]; first compound 0.8 µg/mL, partner 85.5 µg/mL, one replicate) was 0.0927, the fitness ([2]; first compound 0.8 µg/mL, partner 171 µg/mL, one replicate) was 0.148 and the fitness ([2]; first compound 0.8 µg/mL, partner 342 µg/mL, one replicate) was 0.126. For the same compound, the fitness ([2]; first compound 0.86 µg/mL, partner 171 µg/mL) was 0.39, the fitness ([2]; first compound 0.86 µg/mL, partner 342 µg/mL) was 0.495 and the fitness [3, 8] was 0.844. It also gave a fitness [3, 9] of 0.926, a fitness [3, 10] of 0.863 and a fitness [3, 11] of 0.749. It also gave a fitness [3, 12] of 0.837, a fitness [3, 13] of 0.821 and a fitness [3, 14] of 0.391. The fitness [3, 15] was 0.39, the fitness [3, 16] was 0.363 and the Bliss interaction score [4] was 0.0306. It also gave a Bliss interaction score [5] of -0.0294, a Bliss interaction score [6] of 0.0558 and a Bliss interaction score [7] of 0.0563.

In the case of `CCC[C@@H]1C[C@@H](C(=O)N[C@@H]([C@H]2O[C@H](SC)[C@H](O)[C@@H](O)[C@H]2O)[C@@H](C)O)N(C)C1` [Lincomycin] + CN1C2=CC=CC=C2N=C3C1=CC=CC3=O [Pyocyanin], the fitness [1, 17] was 0.899, the fitness [1, 18] was 0.823 and the fitness [1, 19] was 0.694. It also gave a fitness [1, 20] of 0.862, a fitness [1, 21] of 0.8 and a fitness [1, 22] of 0.668. The fitness ([1]; first compound 0.4 µg/mL, partner 1.25 µg/mL) was 0.827, the fitness [1, 23] was 0.792 and the fitness [1, 24] was 0.66. It also gave a fitness ([2]; first compound 0.2 µg/mL, partner 0.325 µg/mL, one replicate) of 0.818, a fitness ([2]; first compound 0.2 µg/mL, partner 0.65 µg/mL, one replicate) of 0.855 and a fitness ([2]; first compound 0.215 µg/mL, partner 0.325 µg/mL) of 0.877. For the same compound, the fitness ([2]; first compound 0.215 µg/mL, partner 0.65 µg/mL) was 0.855, the fitness ([2]; first compound 0.215 µg/mL, partner 1.3 µg/mL) was 0.741 and the fitness ([2]; first compound 0.4 µg/mL, partner 0.325 µg/mL, one replicate) was 0.7. It also gave a fitness ([2]; first compound 0.4 µg/mL, partner 0.65 µg/mL, one replicate) of 0.747, a fitness ([2]; first compound 0.43 µg/mL, partner 0.325 µg/mL) of 0.575 and a fitness ([2]; first compound 0.43 µg/mL, partner 0.65 µg/mL) of 0.794. The fitness ([2]; first compound 0.43 µg/mL, partner 1.3 µg/mL) was 0.665, the fitness ([2]; first compound 0.8 µg/mL, partner 0.325 µg/mL, one replicate) was 0.661 and the fitness ([2]; first compound 0.8 µg/mL, partner 0.65 µg/mL, one replicate) was 0.69. It also gave a fitness ([2]; first compound 0.86 µg/mL, partner 0.325 µg/mL) of 0.535, a fitness ([2]; first compound 0.86 µg/mL, partner 0.65 µg/mL) of 0.489 and a fitness ([2]; first compound 0.86 µg/mL, partner 1.3 µg/mL) of 0.329. The fitness [3, 17] was 0.794, the fitness [3, 18] was 0.883 and the fitness [3, 19] was 0.555. It also gave a fitness [3, 20] of 0.661, a fitness [3, 21] of 0.613 and a fitness [3, 22] of 0.329. For the same compound, the fitness [3, 23] was 0.195, the fitness [3, 24] was 0.0887 and the Bliss interaction score [4] was 0.0751. It also gave a Bliss interaction score [5] of 0.113, a Bliss interaction score [6] of -0.1 and a Bliss interaction score [7] of -0.229.

`CCC[C@@H]1C[C@@H](C(=O)N[C@@H]([C@H]2O[C@H](SC)[C@H](O)[C@@H](O)[C@H]2O)[C@@H](C)O)N(C)C1` [Lincomycin] + CN(N=O)C(=O)N[C@@H](C=O)[C@@H](O)[C@H](O)[C@H](O)CO [Streptozotocin] was tested, and the fitness [1, 25] was 0.957, the fitness [1, 26] was 0.966 and the fitness [1, 27] was 0.956. It also gave a fitness [1, 28] of 0.99, a fitness [1, 29] of 0.93 and a fitness [1, 30] of 0.953. The fitness [1, 31] was 0.994, the fitness [1, 32] was 0.997 and the fitness [1, 33] was 0.99. It also gave a fitness ([2]; first compound 0.2 µg/mL, partner 1.2 µg/mL, one replicate) of 0.767, a fitness ([2]; first compound 0.2 µg/mL, partner 2.4 µg/mL, one replicate) of 0.734 and a fitness ([2]; first compound 0.2 µg/mL, partner 4.8 µg/mL, one replicate) of 0.639. It also gave a fitness ([2]; first compound 0.215 µg/mL, partner 1.2 µg/mL) of 0.752, a fitness ([2]; first compound 0.215 µg/mL, partner 2.4 µg/mL) of 0.754 and a fitness ([2]; first compound 0.215 µg/mL, partner 4.8 µg/mL) of 0.793. It also gave a fitness ([2]; first compound 0.4 µg/mL, partner 1.2 µg/mL, one replicate) of 0.683, a fitness ([2]; first compound 0.4 µg/mL, partner 2.4 µg/mL, one replicate) of 0.683 and a fitness ([2]; first compound 0.4 µg/mL, partner 4.8 µg/mL, one replicate) of 0.553. For the same compound, the fitness ([2]; first compound 0.43 µg/mL, partner 1.2 µg/mL) was 0.664, the fitness ([2]; first compound 0.43 µg/mL, partner 2.4 µg/mL) was 0.661 and the fitness ([2]; first compound 0.43 µg/mL, partner 4.8 µg/mL) was 0.705. For the same compound, the fitness ([2]; first compound 0.8 µg/mL, partner 1.2 µg/mL, one replicate) was 0.181, the fitness ([2]; first compound 0.8 µg/mL, partner 2.4 µg/mL, one replicate) was 0.273 and the fitness ([2]; first compound 0.8 µg/mL, partner 4.8 µg/mL, one replicate) was 0. It also gave a fitness ([2]; first compound 0.86 µg/mL, partner 1.2 µg/mL) of 0.148, a fitness ([2]; first compound 0.86 µg/mL, partner 2.4 µg/mL) of 0.261 and a fitness ([2]; first compound 0.86 µg/mL, partner 4.8 µg/mL) of 0.237. For the same compound, the fitness [3, 25] was 0.804, the fitness [3, 26] was 0.796 and the fitness [3, 27] was 0.708. The fitness [3, 28] was 0.635, the fitness [3, 29] was 0.611 and the fitness [3, 30] was 0.565. It also gave a fitness [3, 31] of 0.282, a fitness [3, 32] of 0.267 and a fitness [3, 33] of 0.177. It also gave a Bliss interaction score [4] of -0.0171, a Bliss interaction score [5] of -0.138 and a Bliss interaction score [6] of 0.0558. The Bliss interaction score [7] was 0.125.
